This assay can be described thus: Hydrogel disc shrinking capacity with polycation solutions. As to the method: Hydrogels were made from gelMA A or B, fish GelMA, and/or HAMA and were prepared at different concentrations. GelMA formulations were dissolved whilst stirring in MilliQ water at 37° C. for 2 h. HAMA formulations were dissolved into MilliQ water overnight under agitation. Both HAMA and gelMA solutions were supplemented with 0.1 wt % Irgacure 2959 (Sigma-Aldrich) prior to UV crosslinking. The prepared polymer solutions were cast in circular PDMS molds (diameter: 4.5 cm) and subsequently UV-irradiated (methacrylate conversion was determined to be >95%). Subsequently, a biopsy punch (Integra Miltex, various diameters) was used to cut cylindrical hydrogels of 2 mm in height.
Shrinking agents were dissolved overnight in either phosphate-buffered saline (170 mM of ionic strength, pH 7.4) or diluted or NaCl-supplemented phosphate buffer (17-700 mM ionic strengths, pH 7.4) for up to 2.0 wt %. Cut hydrogels were initially measured using Vernier calipers (standard error=30 μm) to determine their volumes and subsequently incubated in the various shrinking agent solutions (volume: 2 mL, n=3 for every condition). Unless stated otherwise, incubation was done at room temperature. Hydrogel diameter and height were monitored either over time to determine hydrogel shrinking kinetics or after full dehydration had occurred to determine maximum shrinking capacity (typically after 12 h).

For the substance lysozyme, the hydrogel shrinking entry is, setting by setting: (isotonic conditions (170 mM of ionic strength and pH 7.4)) “did not shrink at all”; (reduced ionic strength (85 mM, pH 7.4)) “hydrogel shrinking was observed”.

The values above are taken from patent US20240002786A1, “SHRINKABLE HYDROGELS” (THE BRIGHAM AND WOMEN'S HOSPITAL, INC., priority 2020, published 2024).
